Results reported in PubChem BioAssay (NCI).
“And” between values parts separate entries of the source, which are not always exact repeats. Identical values can stand only once.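 All cell lines were grown in 96-well plates and treated with compound for 48 hours. GI50 = concentration required for 50% inhibition of growth. At the TGI there is no net growth.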

Legend:
Assay in all cases: DTP human tumour cell line panel, 48 h
[1] = system: SK-MEL-28 melanoma
[2] = system: HOP-62 NSCLC
[3] = system: NCI-H460 lung
[4] = system: A498 renal
[5] = system: 786-0 renal
[6] = system: SK-MEL-2 melanoma
[7] = system: HL-60(TB) leukemia
[8] = system: MCF7 breast
[9] = system: NCI/ADR-RES ovarian
[10] = system: MDA-MB-435

Row | SMILES | TGI [1] | TGI [2] | TGI [3] | TGI [4] | TGI [5] | TGI [6] | TGI [7] [µM] | TGI [8] | TGI [9] [µM] | TGI [10] | GI50 [1] [µM] | GI50 [2] [µM] | GI50 [3] [µM] | GI50 [8] [µM] | GI50 [9] [µM] | GI50 [4] [µM] | GI50 [5] [µM] | GI50 [6] [µM] | GI50 [7] [µM] | GI50 [10] [µM]
1 | Cc1cc(Cl)ccc1N=C1NC(=O)C(CC(=O)Nc2cccc(Cl)c2)S1 (configuration not stated) | > 100 µM | > 100 µM | > 100 µM | 92.4 µM | > 100 µM | > 100 µM | > 100 | – | – | – | – | – | – | – | – | – | – | – | – | –
2 | CCCC1C[C@H]2CCCCN2[C@H]2CCCN12 (some centres not stated) | > 100 µM | > 100 µM | > 100 µM | > 100 µM | > 100 µM | > 100 µM | > 64 | – | – | – | – | – | – | – | – | – | – | – | – | –
3 | CC(C)(C)N/N=C(/Cc1nc2c3c(ccc2[nH]c1=O)C(=O)c1ccccc1C3=O)C(=O)NC1=C(Cl)C(=O)c2ccccc2C1=O | > 100 µM | – | 31.3 µM | > 100 µM | > 100 µM | > 100 µM | > 100 | > 100 µM | 45.1 | > 100 µM | – | – | – | – | – | – | – | – | – | –
4 | C[N+](C)(C)CC1CCC(C[N+](C)(C)C)C1=NO (configuration not stated) | > 100 µM | > 100 µM | – | > 100 µM | > 100 µM | > 100 µM | > 100 | – | – | – | – | – | – | – | – | – | – | – | – | –
5 | COc1cc(C2CC(c3ccccc3)=NN2C=O)ccc1Oc1ccnc2cc(Cl)ccc12 (configuration not stated) | > 100 µM | 36.3 µM | > 100 µM | > 100 µM | 73.7 µM | 38.6 µM | – | > 100 µM | > 100 | – | > 100 | 12.4 | 18.5 | 5.7 | 3.23 | 6.9 | 11.5 | 8.68 | – | –
6 | COC(=O)C(=O)C(C(=O)C(=O)Nc1ccc([N+](=O)[O-])cc1)c1nc2ccccc2[nH]c1=O (configuration not stated) | > 100 µM | > 100 µM | > 100 µM | > 100 µM | > 100 µM | > 100 µM | > 100 | – | – | – | – | – | – | – | – | – | – | – | – | –
7 | CC(C)(O)C1COC2=C1C(=O)c1ccccc1C2=O (configuration not stated) | 46 µM | – | > 100 µM | > 100 µM | > 100 µM | 88.6 µM | 44.9 | 40.1 µM | 62.1 | 44.6 µM | – | – | – | – | – | – | – | – | – | –
8 | Cc1cc(N(CCC#N)CCC#N)ccc1/C=C(\NC(=O)/C=C/c1ccccc1)C(=O)Nc1ccccc1Cl | > 100 µM | – | > 100 µM | > 100 µM | > 100 µM | > 100 µM | > 100 | – | – | – | – | – | – | – | – | – | – | – | – | –
9 | COc1cc2c(c(OC)c1OC)-c1cc(I)c(O)cc1[C@@H](NC(C)=O)CC2 | > 100 µM | > 100 µM | 4.99 µM | 5.5 µM | > 100 µM | > 100 µM | 0.069 | > 100 µM | > 20.3 | – | 0.999 | 0.179 | 0.0356 | 0.0336 | 0.681 | 0.0459 | 0.0614 | 23.1 | 0.0254 | –
10 | C=CCNC(=S)NNC(=O)c1c(C)nc2sccn12 | > 100 µM | > 100 µM | > 100 µM | – | > 100 µM | > 100 µM | > 100 | – | – | – | – | – | – | – | – | – | – | – | – | –
11 | COc1cc2c(oc(=O)c3c4occc4cc(OC)c23)c2cccc(O)c12 | > 100 µM | > 100 µM | > 100 µM | > 100 µM | > 100 µM | – | > 100 | – | – | – | – | – | – | – | – | – | – | – | – | –
12 | COc1cc(C(=O)c2cnc(-c3c[nH]c4cccc(C)c34)[nH]2)cc(OC)c1OC | 97.4 µM | 55.9 µM | 35.4 µM | 0.00774 µM | > 100 µM | 30.7 µM | – | > 100 µM | – | 0.0051 µM | 0.99 | 0.00809 | 0.00618 | 0.00344 | 0.0123 | 0.00176 | 0.00681 | 0.00745 | – | 0.00222
13 | Clc1ccc(C=Nc2ccc(-c3nc4ccccc4[nH]3)cc2)cc1 | > 100 µM | > 100 µM | > 100 µM | > 100 µM | > 100 µM | > 100 µM | – | > 100 µM | > 100 | > 100 µM | > 100 | > 100 | > 100 | > 100 | > 100 | 17.4 | > 100 | > 100 | – | > 100
14 | COc1ccc(/C=C/C(=N\NC(=O)c2ccccc2)c2sc(Nc3ccc([N+](=O)[O-])cc3)nc2C)cc1OC | 47.2 µM | 49.9 µM | 41.2 µM | – | 26.5 µM | 33 µM | – | – | – | – | – | – | – | – | – | – | – | – | – | –
15 | CC(C)c1ccc(O)c(Cc2cc(C(C)C)cc(Cc3cc(C(C)C)ccc3O)c2O)c1 | 3.2 µM | 3.26 µM | 3.45 µM | 2.82 µM | 3.08 µM | 3.06 µM | 4.36 | – | – | – | – | – | – | – | – | – | – | – | – | –
16 | FC(F)(F)c1ccccc1C1SCc2nc3ccccc3n21 (configuration not stated) | > 100 µM | – | – | 94.4 µM | > 100 µM | > 100 µM | 47 | – | – | – | – | – | – | – | – | – | – | – | – | –
17 | Cn1cc(-c2cc(-c3cn(C)c4ccccc34)[nH]n2)c2ccccc21 | > 100 µM | 60 µM | > 100 µM | 90.3 µM | 41.2 µM | > 100 µM | 62.8 | > 100 µM | > 100 | – | > 100 | 17.3 | 4.48 | 3.95 | 27.6 | 19.6 | 14.1 | 57.5 | 15.4 | –
18 | CCOc1ccc(NC(=O)CC2SC(=Nc3ccc(C)cc3)NC2=O)cc1 (configuration not stated) | > 100 µM | > 100 µM | > 100 µM | > 100 µM | > 100 µM | – | – | – | – | – | – | – | – | – | – | – | – | – | – | –
19 | COC(=O)[C@@]12OC[C@]34[C@H]([C@@H](O)[C@@H]1O)[C@@]1(C)CC(=O)C(O)=C(C)[C@@H]1C[C@H]3OC(=O)[C@H](OC(=O)/C=C(\C)C(C)C)[C@@H]24 | 0.0142 µM and < 0.0339 µM and 0.0317 µM | 0.0342 µM and < 0.011 µM and 0.0216 µM | 0.00567 µM and 0.0435 µM | 0.0109 µM and 0.022 µM | 0.072 µM and < 0.012 µM and 0.0429 µM | 0.0195 µM and 0.0303 µM | 0.00583 | 0.021 µM and 0.0264 µM | – | 0.0415 µM and 0.0128 µM | – | – | – | – | – | 0.00487 | 0.0217 | 0.00517 | – | –
20 | Cc1cc(NCCCCCCCNc2cc(C)nc3cc(N)ccc23)c2ccc(N)cc2n1 | > 100 µM | > 100 µM | > 100 µM | > 100 µM | > 100 µM | > 100 µM | 23.9 | – | – | – | – | – | – | – | – | – | – | – | – | –
21 | Nc1nc(SCc2ccccc2CCl)c2[nH]cnc2n1 | 49.7 µM | 33.2 µM | 30.9 µM | 25.8 µM | 40.3 µM | – | – | 28.4 µM | 67.7 | 25.7 µM | 17.7 | 17 | 15.2 | 12.2 | 20.9 | 11.7 | 17.6 | – | – | 12.8
